What follows are compounds tested against T1, GPX4 (Homo sapiens, UniProt P36969) (assay: GPX4 degradation by western blot in HT1080 cells). Conditions: HT1080 cells, 24 h, concentration over 5 µM.
T1 sequence (P36969 1-170 isoform P36969-2): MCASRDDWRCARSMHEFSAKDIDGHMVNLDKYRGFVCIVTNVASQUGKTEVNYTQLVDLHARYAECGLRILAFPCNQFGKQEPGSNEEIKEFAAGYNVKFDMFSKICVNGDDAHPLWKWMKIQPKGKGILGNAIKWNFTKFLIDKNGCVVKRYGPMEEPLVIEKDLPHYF
Format: cell-based
Set-up: determine the changes in the endogenous levels of GPX4 by western blot assay; endogenous in cells; host or cells: HT1080 fibrosarcoma cells, including siRNA-knockdown derivatives
Experimental: To evaluate the GPX4 degradation efficiency of the synthesized HSP70‐PROTACs GDAz‐1–14, we first selected ferroptosis‐sensitive HT1080 fibrosarcoma cells (highly‐expressing GPX4) treated with different concentrations (0.1, 0.3, 1, and 3 µM) of these chimeras to determine the changes in the endogenous levels of GPX4 by western blot assay after 24 h treatment. […] This finding underscores the crucial role of the linker in HSP70‐PROTAC‐mediated protein degradation. […] In the case of alkyl chain derivatives (GDAz‐6–10), elongating the length of the linker generally led to a decreased GPX4 degrading activity. […] Thus, GDAz‐3 was selected for further evaluation.
Cells were seeded at a density of 4 × 10^5 cells well^−1 in 6‐well plates and allowed to incubate overnight. Cells were incubated with the indicated treatments. Thereafter, the cells were collected and lysed with RIPA buffer containing serine protease and phosphatase inhibitors for 30 min on ice. Proteins were quantified by using a BCA protein assay kit (Beyotime). Subsequently, SDS‐PAGE sample loading buffer was added, and the mixture was heated in a 100 °C metal bath for 10 min to denature the proteins. Protein samples from each group were separated by SDS‐PAGE gel and transferred to a PVDF membrane. After blocking with 5% skim milk for 1 h at room temperature, primary antibodies (GPX4: abcam (#ab125066, 1:1000); Hsp70: abcam (#ab2787, 1:1000); CHIP: HUABIO (#ST7108, 1:1000); UpingBio Technology Co., Ltd. (BRD4, #YP‐Ab‐18034, 1:1000; BAG‐1, #YP‐Ab‐00575, 1:1000); GAPDH: Proteintech (#60004‐1‐Ig, 1:50 000)) were used and incubated at 4 °C overnight on a rotary shaker. After washing the membranes with TBST buffer five times, the membranes were incubated with a second antibody (Cell Signaling Technology, #7074S, 1:1000 and #7076S, 1:1000) at room temperature for 2 h. Ultimately, the membrane was washed five times, and the antibody‐protein complexes were visualized using an ECL luminescence reagent (Biosharp, Shanghai, China). The relative intensities of the bands were analyzed by ImageJ and normalized to a loading control.

| GPX4 degradation activity of the probe | SMILES |
| --- | --- |
| considerable GPX4 degradation activity | COc1ccc(-c2nc(-c3ccc(OCc4cn(CCOCCOCCOCCNC(=O)CCCC[C@@H]5SC[C@@H]6NC(=O)N[C@@H]65)nn4)cc3)n(Cc3ccc(C(=O)NCCOCCOCCOCCn4cc(COc5ccc(N(C(=O)CCl)C(C(=O)NCCc6ccccc6)c6cccs6)cc5Cl)nn4)cc3)c2-c2ccc(OC)cc2)cc1 (stereo partly drawn) [GDAz-biotin] |

Same assay, conditions: HT1080 cells, 24 h, tested concentrations (Figure 4A)

| SMILES | GPX4 degradation by negative control compounds |
| --- | --- |
| COc1ccc(-c2nc(-c3cc(C(F)(F)F)cc(C(F)(F)F)c3)n(Cc3ccc(C(=O)NCCOCCOCCOCCn4cc(COc5ccc(N(C(=O)CO)C(C(=O)NCCc6ccccc6)c6cccs6)cc5Cl)nn4)cc3)c2-c2ccc(OC)cc2)cc1 (stereo not drawn) [GDAz-OH] | none of the compounds effectively triggered GPX4 degradation |

Same assay, conditions: HT-1080, HT1080 cells, MLN4924 2.5 µM alone; read-out: GPX4 % of control

| remaining activity at 2.5 µM | SMILES |
| --- | --- |
| 96% | NS(=O)(=O)OC[C@@H]1C[C@@H](n2ccc3c(N[C@H]4CCc5ccccc54)ncnc32)C[C@@H]1O [MLN4924, reference compound] |

The compounds below were run on HT1080 cells (assay: Cell viability CCK-8 assay). Conditions: Homo sapiens, HT-1080, CCK-8, 48 h, read-out: IC50 (cytotoxicity).
Format: cell-based, human
Experimental: To determine whether GPX4 degradation following treatment with HSP70‐PROTACs triggers cancer cell ferroptosis, we initially assessed the viability of HT1080 cells using the CCK‐8 assay after treatment with various concentrations of the tested compounds for 48 h. GPX4 inhibitor ML162, HSP70 inhibitor apoptozole, and two GPX4 non‐degradable HSP70‐PROTAC molecules, GDAz‐Neg1 and GDAz‐Neg2, were selected as controls. […] This remarkable activity might partly be ascribed to the high cell permeability conferred by the piperazine ring. […] We speculated that the potent anti‐proliferative activity of GDAz‐Neg2 may be attributed to the GPX4 inhibition.
The compounds under investigation were initially dissolved in dimethyl sulfoxide (DMSO) to generate stock solutions with a concentration of 10 mM. HT1080 cells or other tested cells were seeded in 96‐well plates at a density of 3000–5000 cells well^−1 and cultured at 37 °C. Following a 24‐h incubation period, the tested compounds were added to the wells at various concentrations (the DMSO stock solutions of all the tested compounds were diluted with culture medium to obtain the designated concentration containing a final concentration of DMSO less than 0.5% (v/v)). The cells were then cultured for an additional 48 or 72 h. Cell Counting Kit 8 (CCK‐8) assay was conducted to examine the effects of the tested compounds on cell viability, and the absorbance was measured at a wavelength of 450 nm. The IC50 values were determined utilizing GraphPad Prism software through nonlinear regression analysis. All experiments were independently repeated at least three times.

| SMILES | IC50 |
| --- | --- |
| COc1ccc(-c2nc(-c3cc(C(F)(F)F)cc(C(F)(F)F)c3)n(Cc3ccc(C(=O)NCCNC(=O)Cn4cc(COc5ccc(N(C(=O)CCl)C(C(=O)NCCc6ccccc6)c6cccs6)cc5Cl)nn4)cc3)c2-c2ccc(OC)cc2)cc1 (stereo not drawn) [GDAz-6, 4-((2-(3,5-bis(trifluoromethyl)phenyl)-4,5-bis(4-methoxyphenyl)-1H-imidazol-1-yl)methyl)-N-(2-(2-(4-((2-chloro-4-(2-chloro-N-(2-oxo-2-(phenethylamino)-1-(thiophen-2-yl)ethyl)acetamido)phenoxy)methyl)-1H-1,2,3-triazol-1-yl)acetamido)ethyl)benzamide] | 350 ± 80 nM |
| COc1ccc(-c2nc(-c3cc(C(F)(F)F)cc(C(F)(F)F)c3)n(Cc3ccc(C(=O)NCCOCCOCCOCCOCCOCCn4cc(COc5ccc(N(C(=O)CCl)C(C(=O)NCCc6ccccc6)c6cccs6)cc5Cl)nn4)cc3)c2-c2ccc(OC)cc2)cc1 (stereo not drawn) [GDAz-5, 4-((2-(3,5-bis(trifluoromethyl)phenyl)-4,5-bis(4-methoxyphenyl)-1H-imidazol-1-yl)methyl)-N-(17-(4-((2-chloro-4-(2-chloro-N-(2-oxo-2-(phenethylamino)-1-(thiophen-2-yl)ethyl)acetamido)phenoxy)methyl)-1H-1,2,3-triazol-1-yl)-3,6,9,12,15-pentaoxaheptadecyl)benzamide] | 210 ± 30 nM |
| COc1ccc(-c2nc(-c3cc(C(F)(F)F)cc(C(F)(F)F)c3)n(Cc3ccc(C(=O)NCCOCCn4cc(COc5ccc(N(C(=O)CCl)C(C(=O)NCCc6ccccc6)c6cccs6)cc5Cl)nn4)cc3)c2-c2ccc(OC)cc2)cc1 (stereo not drawn) [GDAz-1, 4-((2-(3,5-bis(trifluoromethyl)phenyl)-4,5-bis(4-methoxyphenyl)-1H-imidazol-1-yl)methyl)-N-(2-(2-(4-((2-chloro-4-(2-chloro-N-(2-oxo-2-(phenethylamino)-1-(thiophen-2-yl)ethyl)acetamido)phenoxy)methyl)-1H-1,2,3-triazol-1-yl)ethoxy)ethyl)benzamide] | 21700 ± 5300 nM |
| COc1ccc(-c2nc(-c3cc(C(F)(F)F)cc(C(F)(F)F)c3)n(Cc3ccc(C(=O)N4CCN(C(=O)Cn5cc(COc6ccc(N(C(=O)CCl)C(C(=O)NCCc7ccccc7)c7cccs7)cc6Cl)nn5)CC4)cc3)c2-c2ccc(OC)cc2)cc1 (stereo not drawn) [GDAz-14, N-(4-((1-(2-(4-(4-((2-(3,5-bis(trifluoromethyl)phenyl)-4,5-bis(4-methoxyphenyl)-1H-imidazol-1-yl)methyl)benzoyl)piperazin-1-yl)-2-oxoethyl)-1H-1,2,3-triazol-4-yl)methoxy)-3-chlorophenyl)-2-chloro-N-(2-oxo-2-(phenethylamino)-1-(thiophen-2-yl)ethyl)acetamide] | 120 nM |
| COc1ccc(-c2nc(-c3cc(C(F)(F)F)cc(C(F)(F)F)c3)n(Cc3ccc(C(=O)NCCC4CCN(C(=O)Cn5cc(COc6ccc(N(C(=O)CCl)C(C(=O)NCCc7ccccc7)c7cccs7)cc6Cl)nn5)CC4)cc3)c2-c2ccc(OC)cc2)cc1 (stereo not drawn) [GDAz-13, 4-((2-(3,5-bis(trifluoromethyl)phenyl)-4,5-bis(4-methoxyphenyl)-1H-imidazol-1-yl)methyl)-N-(2-(1-(2-(4-((2-chloro-4-(2-chloro-N-(2-oxo-2-(phenethylamino)-1-(thiophen-2-yl)ethyl)acetamido)phenoxy)methyl)-1H-1,2,3-triazol-1-yl)acetyl)piperidin-4-yl)ethyl)benzamide] | > 30000 nM |
| COc1ccc(-c2nc(-c3cc(C(F)(F)F)cc(C(F)(F)F)c3)n(Cc3ccc(C(=O)NCCOCCOCCn4cc(COc5ccc(N(C(=O)CCl)C(C(=O)NCCc6ccccc6)c6cccs6)cc5Cl)nn4)cc3)c2-c2ccc(OC)cc2)cc1 (stereo not drawn) [GDAz-2, 4-((2-(3,5-bis(trifluoromethyl)phenyl)-4,5-bis(4-methoxyphenyl)-1H-imidazol-1-yl)methyl)-N-(2-(2-(2-(4-((2-chloro-4-(2-chloro-N-(2-oxo-2-(phenethylamino)-1-(thiophen-2-yl)ethyl)acetamido)phenoxy)methyl)-1H-1,2,3-triazol-1-yl)ethoxy)ethoxy)ethyl)benzamide] | 390 ± 110 nM |
| COc1ccc(-c2nc(-c3cc(C(F)(F)F)cc(C(F)(F)F)c3)n(Cc3ccc(C(=O)NCCCCCNC(=O)Cn4cc(COc5ccc(N(C(=O)CCl)C(C(=O)NCCc6ccccc6)c6cccs6)cc5Cl)nn4)cc3)c2-c2ccc(OC)cc2)cc1 (stereo not drawn) [GDAz-9, 4-((2-(3,5-bis(trifluoromethyl)phenyl)-4,5-bis(4-methoxyphenyl)-1H-imidazol-1-yl)methyl)-N-(5-(2-(4-((2-chloro-4-(2-chloro-N-(2-oxo-2-(phenethylamino)-1-(thiophen-2-yl)ethyl)acetamido)phenoxy)methyl)-1H-1,2,3-triazol-1-yl)acetamido)pentyl)benzamide] | 140 ± 20 nM |
| COc1ccc(-c2nc(-c3cc(C(F)(F)F)cc(C(F)(F)F)c3)n(Cc3ccc(C(=O)NCCCCNC(=O)Cn4cc(COc5ccc(N(C(=O)CCl)C(C(=O)NCCc6ccccc6)c6cccs6)cc5Cl)nn4)cc3)c2-c2ccc(OC)cc2)cc1 (stereo not drawn) [GDAz-8, 4-((2-(3,5-bis(trifluoromethyl)phenyl)-4,5-bis(4-methoxyphenyl)-1H-imidazol-1-yl)methyl)-N-(4-(2-(4-((2-chloro-4-(2-chloro-N-(2-oxo-2-(phenethylamino)-1-(thiophen-2-yl)ethyl)acetamido)phenoxy)methyl)-1H-1,2,3-triazol-1-yl)acetamido)butyl)benzamide] | 130 ± 40 nM |
| COc1ccc(-c2nc(-c3cc(C(F)(F)F)cc(C(F)(F)F)c3)n(Cc3ccc(C(=O)NCCCNC(=O)Cn4cc(COc5ccc(N(C(=O)CCl)C(C(=O)NCCc6ccccc6)c6cccs6)cc5Cl)nn4)cc3)c2-c2ccc(OC)cc2)cc1 (stereo not drawn) [GDAz-7, 4-((2-(3,5-bis(trifluoromethyl)phenyl)-4,5-bis(4-methoxyphenyl)-1H-imidazol-1-yl)methyl)-N-(3-(2-(4-((2-chloro-4-(2-chloro-N-(2-oxo-2-(phenethylamino)-1-(thiophen-2-yl)ethyl)acetamido)phenoxy)methyl)-1H-1,2,3-triazol-1-yl)acetamido)propyl)benzamide] | 530 ± 70 nM |

From PMC12948223, “HSP70 Interactome‐Mediated Proteolysis Targeting Chimera (HSP70‐PROTAC) for Ferroptosis‐Driven Cancer Treatment” (Advanced Science, 2025)
